According to patent publication US10342796B2, “Acrylanilide derivative, preparation method, and applications thereof in pharmacy” (Ancureall Pharmaceutical (Shanghai) Co., Ltd., priority 2015, dated 2019):

What was measured:
H1975 tumor cells = assay: In vivo tumor growth inhibition, xenograft; set-up: species or system Bab/c nude mice; conditions: Mus musculus, NCI-H1975, po, 456 h; 25 mg/kg intragastric once daily, day 19; read-out: TGI (%) H1975
Summary of the method: (§1)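 Female Bab/c nude mice (6–8 weeks) carried subcutaneous H1975, PC-9 or NCI-N87 xenografts and were dosed from 100–200 mm^3 tumors. Dosing was 25 mg/kg intragastrically once daily in a PEG400/Tween-80/propylene glycol suspension for up to 30 days. TGI was derived from caliper volumes (½ab^2) versus vehicle.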

[1] = tested on: HER2/ErbB2 amplified cell line N87; assay: In vivo tumor growth inhibition, xenograft; set-up: species or system Bab/c nude mice; conditions: Mus musculus, po, 456 h, 25 mg/kg intragastric once daily, day 19, read-out: TGI (%)
Summary of the method: as §1

PC-9 tumor cells = assay: In vivo tumor growth inhibition, xenograft; set-up: species or system Bab/c nude mice; conditions: Mus musculus, po, 456 h; 25 mg/kg intragastric once daily, day 19; read-out: TGI (%) PC-9
Summary of the method: as §1

[2] = tested on: A375 (EGFR wt, BRAF V600E); assay: Growth inhibition GI50 in vitro (CCK8/MTT, 72 h); type: cell-based; conditions: Homo sapiens, A-375; A375, EGFR wt, BRAF V600E; read-out: GI50
Source text: EGFR wild type cell lines: human epidermal cancer cell line A431 (EGFR WT, amplification and high expression, from Shanghai Cell Bank of Chinese Academy of Sciences and ATCC), NSCLC cell lines NCI-H460 (EGFR WT, Kras G61H and PI3KCA E545K mutants, ATCC) and NCI-H1299 (EGFR WT, ATCC), melanoma cell line A375 (EGFR WT and BRAF V600E mutant, from Shanghai Cell Bank of Chinese Academy of Sciences, ATCC), human lung cancer cell line NCI-H292 (EGFR WT, from human lung mucoepidermoid carcinoma/lymphatic metastasis, purchased from Shanghai Cell Bank of Chinese Academy of Sciences) were cultured with 1×RPMI1640 complete medium which was supplement with 10% FBS. NSCLC cell line A549 (EGFR WT and Kras G12S mutant, from Shanghai Cell Bank of Chinese Academy of Sciences) was cultured with 1×Ham'S F12K complete medium which was supplement with 10% FBS, 1% double-antibiotics and 2 mM glutamine.
(§2) The suspension cells were collected by centrifugation. The supernatant was discard and the cell pellet was resuspended and counted. Different cell concentrations (5˜10×10^4 cells/mL) were prepared according to the growth cycle of each cell line and then seeded on a 96-well plate (Corning), 100 μL/well. The cells were incubated over night at 37° C., 5% CO2. The compounds were added to the cells on the second day with 2 wells in parallel. The final concentration of organic solvent shall not exceed 1%. The cells were continually incubated for 72 h, and then subjected to MTT assay.
(§3) The present compounds and the reference compounds were dissolved with DMSO (Sigma), respectively. […] The storage concentration of compounds was 10 mM and kept at −20° C. They were diluted by 2 times or 10 times with serial dilution before using.
(§4) Dojindo CCK8 reagent kit was used as MTT assay. […] FC meter was used as microplate reader.
(§5) Adherent cell culture medium was discard and immediately replaced with fresh prepared medium which contains 10% CCK8 reagent (100 μL/well). For the suspension cells, CCK8 was directly added to 10% of the final concentration. The cells were continually incubated for 1˜4 h. When the color of control wells turned to dark yellow, the absorption value was measured at OD450 nm. The cell growth rate was calculated according to the following formula: cell growth rate (%)=100*(T−T0)/(C−T0), T=optical density of drug treatment cell well—optical density of blank control well; T0=optical density of cell well before drug treatment—optical density of blank control well; C=optical density of cell well of solvent control group—optical density of blank control well. […] The experiment was independently repeated 1˜3 times, and subject to biological statistical analysis.
(§6) Growth inhibition assay was conducted in the cell lines shown Table 14 with the different oncogene mutations. Each compound started at 1000 nM as an initial concentration and was diluted by 2 times with serial dilution to 0.03 nM.

Ramos (BTK) = assay: Growth inhibition GI50 in vitro (CCK8/MTT, 72 h); type: cell-based, human
Experimental: RAMOS is human B lymphocytic leukemia cell line positively expressing BTK. It was cultured with 1×RPMI1640 complete medium (supplement with 10% FBS).
as §2, §3, §4, §5, §6

K562 (BCR-ABL) = assay: Growth inhibition GI50 in vitro (CCK8/MTT, 72 h); type: cell-based; conditions: Homo sapiens
Experimental: Human leukemia cell line K562 (expressing BCR-ABL fusion protein) (ATCC) was cultured with 1×RPMI1640 complete medium (supplement with 10% FBS).
as §2, §3, §4, §5, §6

HEL (Jak2 V167F) = assay: Growth inhibition GI50 in vitro (CCK8/MTT, 72 h); type: cell-based; conditions: Homo sapiens; HEL, Jak2 V167F; read-out: GI50
Experimental: Jak2 is a kind of non-receptor PTK (Janus Kinase 2) with great significance in cell growth, differentiation and transformation. Jak2 gene mutation often leads to bone marrow hyperplasia and transformation. Especially Jak2 V167F mutation is common for clinical patients. Human erythroleukemia cell line HEL expressing Jak2 V167F was cultured with 1×RPMI1640 complete medium (supplement with 10% FBS).
as §2, §3, §4, §5, §6

Row | GI50 [2] [nM] | GI50 (Ramos (BTK); Homo sapiens, Ramos, BTK) [nM] | GI50 (K562 (BCR-ABL)) [nM] | Structure (SMILES) | inhibition in vivo at 25 mg/kg (H1975 tumor cells) [%] | inhibition in vivo at 25 mg/kg [1] [%] | inhibition in vivo at 25 mg/kg (PC-9 tumor cells) [%] | inhibition effects (Ramos (BTK); BTK+ Ramos cells) | GI50 (HEL (Jak2 V167F)) [nM]
1 |  |  |  | C=CC(=O)Nc1cc(Nc2nccc(-n3ccc4c(OC)cccc43)n2)c(OC)cc1N(C)CCN(C)C [Compound 99, N-(5-(4-(4-methoxyl-1H-indol-1-yl)-pyrimidin-2-ylamino)-2-(2-(dimethylamino-ethyl)-methyl-amino)-4-methoxyl-phenyl)-acrylamide] | 94.6 | 95.4 | 95.8 |  | 
2 |  |  |  | C=CC(=O)Nc1cc(Nc2nccc(-n3ccc4ccc(F)cc43)n2)c(OC)cc1N(C)CCN(C)C [Compound 63, N-(5-(4-(6-fluoro-1H-indol-1-yl)-pyrimidin-2-ylamino)-2-((2-(dimethylamino)ethyl)-methyl-amino)-4-methoxyl-phenyl)-acrylamide] | 98.3 | 94.7 | 98.3 |  | 
3 | > 1000 | 78.1 | > 1000 | C=CC(=O)Nc1cc(Nc2cc(-c3cn(C(C)C)c4ccccc34)ncn2)c(OC)cc1N(C)CCN(C)C [Compound 183] | 97.4 | 97.7 | 98.8 | moderate inhibition effects | > 1000
4 |  |  |  | C=CC(=O)Nc1cc(Nc2ncnc(Nc3cccc(Br)c3)n2)c(OC)cc1N(C)CCN(C)C [Compound 115, N-(5-(4-(3-bromo-phenylamino)-[1,3,5]triazin-2-ylamino)-2-((2-dimethylamino-ethyl)-methyl-amino)-4-methoxyl-phenyl)-acrylamide] | 59.1 | 97.8 | 97.1 |  | 
